Measured values reported in PMC6067974 (Neuropharmacology, 2018).

Legend:
[1] = molecular target: serotonin transporter (SERT) (Homo sapiens, UniProt P31645); experiment: PDSP off-target radioligand binding, serotonin transporter
mouse A2BAR [2] = experiment: Cell-based assay at mouse A2BAR; settings: EC50 2.8 nM vs Ki 136 nM
A1AR = settings: read-out: rat Ki, A1AR, ref Alnouri et al., 2015; cited from earlier work
mice [3] = experiment: Indirect calorimetry; settings: BAY60-6583 1 mg/kg, i.p.; C57BL/6J mice
mice [4] = experiment: Telemetric monitoring of Tb and physical activity in mice; type: in vivo, mouse
mouse A1AR = molecular target: T1, mouse A1AR (Mus musculus, UniProt Q60612); experiment: Radioligand binding, mouse A1AR; settings: ratio of rat Ki to mouse Ki at A1AR
T1 sequence (Q60612 1-326): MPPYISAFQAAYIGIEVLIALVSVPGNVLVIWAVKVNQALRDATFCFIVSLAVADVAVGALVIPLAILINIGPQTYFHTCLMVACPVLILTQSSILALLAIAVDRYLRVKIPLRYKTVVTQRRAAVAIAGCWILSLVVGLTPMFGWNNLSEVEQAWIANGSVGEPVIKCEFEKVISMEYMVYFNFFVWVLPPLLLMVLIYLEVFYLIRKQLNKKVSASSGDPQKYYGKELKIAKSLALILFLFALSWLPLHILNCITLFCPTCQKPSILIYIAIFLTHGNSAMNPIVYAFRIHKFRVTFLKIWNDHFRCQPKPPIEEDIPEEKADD

[5] = tested on: hypothalamic neurons (Fos); experiment: Drug-induced neuronal activation; type: in vivo, mouse; settings: BAY60-6583 0.004 mg/kg i.c.v.; Adora1−/−;Adora3−/− mice; 1 h; vs vehicle
mouse A2AAR = mouse A2AAR (Mus musculus, UniProt Q60613); settings: read-out: mouse Ki, A2AAR, ref Alnouri et al., 2015; cited from earlier work
mouse A2AAR, sequence (Q60613 whole entry): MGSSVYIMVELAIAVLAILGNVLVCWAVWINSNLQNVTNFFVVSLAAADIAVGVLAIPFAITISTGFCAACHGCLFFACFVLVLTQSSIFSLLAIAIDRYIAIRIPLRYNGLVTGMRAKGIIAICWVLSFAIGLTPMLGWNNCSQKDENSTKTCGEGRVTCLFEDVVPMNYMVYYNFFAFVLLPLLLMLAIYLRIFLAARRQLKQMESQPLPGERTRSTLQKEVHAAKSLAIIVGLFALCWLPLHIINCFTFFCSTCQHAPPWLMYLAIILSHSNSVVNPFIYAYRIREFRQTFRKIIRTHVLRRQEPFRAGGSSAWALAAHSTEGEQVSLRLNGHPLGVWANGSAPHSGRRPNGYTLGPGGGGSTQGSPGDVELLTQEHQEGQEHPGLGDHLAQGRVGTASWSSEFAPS

mouse A2BAR [6] = settings: ref van der Hoeven et al., 2011, cited from earlier work
[7] = BAY60-6583 0.5–2 mg/kg, i.p., C57BL/6J mice

serotonin transporter (SERT), sequence (P31645 whole entry): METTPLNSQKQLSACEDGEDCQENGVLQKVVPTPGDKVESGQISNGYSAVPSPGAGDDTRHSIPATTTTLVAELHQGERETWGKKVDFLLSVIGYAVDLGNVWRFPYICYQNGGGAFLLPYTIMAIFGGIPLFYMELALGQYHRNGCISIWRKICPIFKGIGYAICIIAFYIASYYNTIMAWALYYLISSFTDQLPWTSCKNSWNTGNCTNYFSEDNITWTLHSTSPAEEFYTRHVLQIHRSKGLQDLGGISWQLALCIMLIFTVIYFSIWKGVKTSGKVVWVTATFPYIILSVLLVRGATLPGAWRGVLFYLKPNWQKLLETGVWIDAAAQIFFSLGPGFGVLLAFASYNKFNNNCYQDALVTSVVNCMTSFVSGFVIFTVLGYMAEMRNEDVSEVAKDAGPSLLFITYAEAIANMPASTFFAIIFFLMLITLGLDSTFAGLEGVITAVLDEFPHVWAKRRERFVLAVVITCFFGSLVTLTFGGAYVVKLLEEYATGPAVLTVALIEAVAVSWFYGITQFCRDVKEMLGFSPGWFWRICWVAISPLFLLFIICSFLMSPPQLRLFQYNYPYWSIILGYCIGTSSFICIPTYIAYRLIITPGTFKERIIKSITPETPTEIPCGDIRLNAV

N#Cc1c(N)nc(SCC(N)=O)c(C#N)c1-c1ccc(OCC2CC2)cc1 [BAY60-6583, 2-[6-amino-3,5-dicyano-4-[4-(cyclopropylmethoxy)phenyl]pyridin-2-ylsulfanyl]acetamide]
Ki [1]: 5600 nM
EC50 better than the binding affinity at A2BAR (mouse A2BAR [2]): 50 fold
Ki (A1AR): 514 nM
food intake (mice [3]): lowered
metabolic rate (total energy expenditure) (mice [3]): lowered metabolic rate
respiratory exchange ratio (mice [3]): lowered
Tb response (hypothermia) (mice [4]; BAY60-6583 0.004 mg/kg i.c.v., Adora1−/−;Adora3−/− mice): more modest effects
Tb response (hypothermia) (mice [4]; BAY60-6583 0.004 mg/kg, i.c.v., C57BL/6J (WT) mice): caused hypothermia
Tb response (hypothermia) (mice [4]; BAY60-6583 0.04 mg/kg i.c.v., Adora1−/−;Adora3−/− mice): profound, prolonged hypothermia
Tb response (hypothermia) (mice [4]; BAY60-6583 1 mg/kg, i.p., Adora2b−/− mice, 1 mg/kg): completely abolished
Tb response (hypothermia) (mice [4]; BAY60-6583 1 mg/kg, i.p., KitW−sh/W−sh mice): intact
Tb response (hypothermia) (mice [4]; [7]): dose-dependent hypothermia
physical activity (mice [4]; [7]): hypoactivity
i.c.v. dose as fraction of a similarly hypothermic i.p. dose (mice [4]; BAY60-6583, i.c.v. vs i.p.): 1/150
Tb response (hypothermia) (mice [4]; BAY60-6583 i.p., Adora1−/−;Adora3−/− mice, not shown): intact
A1AR rat: mouse ratio (mouse A1AR): 1.5
Fos immunoreactivity, dorsomedial hypothalamus (DMH) [5]: not significantly different
Fos immunoreactivity, ventromedial hypothalamus (VMH) [5]: not significantly different
Fos immunostaining, paraventricular hypothalamus (PVH) [5]: increased Fos immunostaining
Fos immunostaining, preoptic area (POA) [5]: increased Fos immunostaining
Ki (mouse A2AAR): > 10000 nM
adenosine receptor activation selectivity (mouse A2BAR [6]; not mouse A1AR, A2AAR, or A3AR): activate only mouse A2BAR
EC50 (mouse A2BAR [6]; read-out: EC50 at mouse A2BAR, cell-based assay): 2.8 nM
